# Measured values: PubChem BioAssay AID1845195 (Molecular Pharmacology Branch, DTP, NCI, 2023)
# Test system: 156681-154-R-J1 tumor spheroid viability
# Assay: Anticancer human tumor 156681-154-R-J1 patient-derived melanoma cell line growth inhibition
# Conditions: spheroids with HUVEC and MSC; for IC50: curve of first compound; for viability, T/C: stronger effect = lower value
# From the text: Multicellular complex tumor spheroid response to DNA repair inhibitors in combination with DNA-damaging drugs
# This study explores the anticancer activities of DNA-damaging drugs and inhibitors of DNA damage repair, both as single agents and in combinations. Complex tumor spheroids comprised of malignant cells, endothelial cells and mesenchymal stem cells served as an in vitro model for human solid tumors. This model system incorporates physiologically relevant features and patient-derived or established malignant cell lines with clinically relevant genetic alterations from many tumor types. Twenty-six patient-derived or established malignant cell lines were evaluated representing sarcoma, melanoma, small cell lung cancer (SCLC), non-small cell lung cancer (NSCLC), as well as bladder, ovarian and pancreatic cancers. The concentration ranges selected for each drug and investigational agent were based upon clinically achievable concentrations if the clinical Cmax of the agent was known.
# Compounds. The drugs and compounds olaparib (NSC753686), talazoparib (NSC767125), berzosertib (NSC777718), elimusertib (NSC800525), nedisertib (NSC802822), VX-984 (NSC792969), AZD-1390 (NSC803789), temozolomide (NSC362856), topotecan (NSC609699), trabectedin (NSC813783), staurosporine (NSC755774), and gemcitabine (NSC613327) were obtained from the National Cancer Institute (NCI) Developmental Therapeutics Program Chemical Repository. The FDA-approved anticancer drug set is available from the Developmental Therapeutics Program at https://dtp.cancer.gov/organization/dscb/obtaining/available_plates.htm. […] The stock solutions were prepared in dimethyl sulfoxide (DMSO, Sigma-Aldrich, St. Louis, MO, cat. D2650) at 400-fold the tested concentration and stored at -70 degrees C. Prior to their use, the stock solutions were diluted in fresh medium and the final DMSO concentration in the assay was 0.25% (v/v). All drugs and investigational agents were tested over a range starting from a high concentration at or near the clinical Cmax and decreasing in half-log increments. If the clinical Cmax for an agent had not been determined, the highest concentration tested was 10 microM.
# Cell Lines. The patient-derived cancer cell (PDC) lines: 156681-154-R-J1-PDC, 283228-195-R-J1-PDC, 287954-098-R-J1-PDC, 292921-168-R-J2-PDC, 349418-098-R-PDC, 425362-245-T-J1-PDC, 556581-035-R-J1-PDC, and BL0293-F563-PDC were received from the NCI Patient-Derived Models Repository (PDMR, https://pdmr.cancer.gov). The established cell lines HS-SY-2 (RRID:CVCL_8719), MPNST, and SYO-1 (RRID:CVCL_7146) were obtained from the Sloan Kettering Institute. The alveolar soft parts sarcoma cell line ASPS-1 (RRID:CVCL_S738) was established at the NCI and grown from internal seed stocks. The following established cell lines were purchased from the American Type Culture Collection (ATCC, Manassas, VA): G-401 (ATCC, cat. CRL-1441, RRID:CVCL_0270), SW982 (ATCC, cat. HTB-93, RRID:CVCL_1734), VA-ES-BJ (ATCC, cat. CRL-2138, RRID:CVCL_1785), NCI-H719 (ATCC, cat. CRL-5837, RRID:CVCL_1582), NCI-H196 (ATCC, cat. CRL-5823, RRID:CVCL_1509), NCI-H841 (ATCC, cat. CRL-5845, RRID:CVCL_1595), NCI-H1618 (ATCC, cat. CRL-5879, RRID:CVCL_1480), NCI-H1876 (ATCC, cat. CRL-5902, RRID:CVCL_1503), DMS 114 (ATCC, cat. CRL-2066; RRID:CVCL_1174), NCI-H211 (ATCC, cat. CRL-5824; RRID:CVCL_1529), and SW 1271 (ATCC, cat. CRL-2177, RRID:CVCL_1716). The small cell lung cancer cell line COR-L88 was purchased from Sigma-Aldrich (cat. 92031917-1VL, RRID:CVCL_1141). The non-small cell lung cancer cell lines NCI-H226 (RRID:CVCL_1544) and NCI-H322M (RRID:CVCL_1557) were established at the NCI and grown from internal seed stocks. Pooled donor human umbilical vein endothelial cells (HUVEC, Lonza, cat. CC-2519) and human mesenchymal stem cells (hMSC, Lonza, cat. PT-2501) were purchased from Lonza (Walkersville, MD).
# Cell Culture. All cells were maintained in an incubator at 37 degrees C and 5% CO2 with 95% humidity. […]
# 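Note: spheroids exposed to compounds for 7 days before readout.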
# 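Throughout, for viability, T/C: percent of vehicle control viability where 100% = DMSO-treated spheroids.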
smiles,measurement,setting,value
Cn1ncnc1[C@H]1c2n[nH]c(=O)c3cc(F)cc(c23)N[C@@H]1c1ccc(F)cc1 + COc1cc2c(cc1O)CCNC21CSC2c3c(OC(C)=O)c(C)c4c(c3C(COC1=O)N1C(O)C3Cc5cc(C)c(OC)c(O)c5C(C21)N3C)OCO4,IC50,second compound 30 pM,1440 nM
same,IC50,second compound 94.9 pM,688 nM
same,IC50,second compound 0.0003 µM,97 nM
same,IC50,second compound 0.000949 µM,< 9.49 nM
same,IC50,second compound 0.003 µM,< 9.49 nM
same,"viability, T/C","second compound 30 pM, first compound 0.00949 µM",82%
same,"viability, T/C","second compound 30 pM, first compound 0.03 µM",91.7%
same,"viability, T/C","second compound 30 pM, first compound 0.0949 µM",97.9%
same,"viability, T/C","second compound 30 pM, first compound 0.3 µM",72.4%
same,"viability, T/C","second compound 30 pM, first compound 0.949 µM",70.9%
same,"viability, T/C","second compound 30 pM, first compound 3 µM",19.1%
same,"viability, T/C","second compound 94.9 pM, first compound 0.00949 µM",97.5%
same,"viability, T/C","second compound 94.9 pM, first compound 0.03 µM",80.7%
same,"viability, T/C","second compound 94.9 pM, first compound 0.0949 µM",91.9%
same,"viability, T/C","second compound 94.9 pM, first compound 0.3 µM",73.3%
same,"viability, T/C","second compound 94.9 pM, first compound 0.949 µM",40.8%
same,"viability, T/C","second compound 94.9 pM, first compound 3 µM",14%
same,"viability, T/C","second compound 0.0003 µM, first compound 0.00949 µM",48.5%
same,"viability, T/C","second compound 0.0003 µM, first compound 0.03 µM",53.7%
same,"viability, T/C","second compound 0.0003 µM, first compound 0.0949 µM",51%
same,"viability, T/C","second compound 0.0003 µM, first compound 0.3 µM",36.6%
same,"viability, T/C","second compound 0.0003 µM, first compound 0.949 µM",15.2%
same,"viability, T/C","second compound 0.0003 µM, first compound 3 µM",11.3%
same,"viability, T/C","second compound 0.000949 µM, first compound 0.00949 µM",10%
same,"viability, T/C","second compound 0.000949 µM, first compound 0.03 µM",4.38%
same,"viability, T/C","second compound 0.000949 µM, first compound 0.0949 µM",4.05%
same,"viability, T/C","second compound 0.000949 µM, first compound 0.3 µM",2.68%
same,"viability, T/C","second compound 0.000949 µM, first compound 0.949 µM",1%
same,"viability, T/C","second compound 0.000949 µM, first compound 3 µM",0.14%
same,"viability, T/C","second compound 0.003 µM, first compound 0.00949 µM",0.15%
same,"viability, T/C","second compound 0.003 µM, first compound 0.03 µM",0.14%
same,"viability, T/C","second compound 0.003 µM, first compound 0.0949 µM",0.55%
same,"viability, T/C","second compound 0.003 µM, first compound 0.3 µM",0.12%
same,"viability, T/C","second compound 0.003 µM, first compound 0.949 µM",0.13%
same,"viability, T/C","second compound 0.003 µM, first compound 3 µM",0.18%
COc1ccc([C@@H](O)c2cc(-c3ncnc4cc(N5CCOCC5)ccc34)c(F)cc2Cl)nn1 + Cn1nnc2c(C(N)=O)ncn2c1=O,IC50,second compound 1 µM,> 10000 nM
same,IC50,second compound 3.16 µM,> 10000 nM
same,IC50,second compound 10 µM,7330 nM
same,IC50,second compound 31.6 µM,> 10000 nM
same,IC50,second compound 100 µM,> 10000 nM
same,"viability, T/C","second compound 1 µM, first compound 0.0316 µM",104%
same,"viability, T/C","second compound 1 µM, first compound 0.1 µM",98.4%
same,"viability, T/C","second compound 1 µM, first compound 0.316 µM",86%
same,"viability, T/C","second compound 1 µM, first compound 1 µM",70.5%
same,"viability, T/C","second compound 1 µM, first compound 3.16 µM",72.2%
same,"viability, T/C","second compound 1 µM, first compound 10 µM",53.3%
same,"viability, T/C","second compound 3.16 µM, first compound 0.0316 µM",101%
same,"viability, T/C","second compound 3.16 µM, first compound 0.1 µM",111%
same,"viability, T/C","second compound 3.16 µM, first compound 0.316 µM",77.7%
same,"viability, T/C","second compound 3.16 µM, first compound 1 µM",79.1%
same,"viability, T/C","second compound 3.16 µM, first compound 3.16 µM",62%
same,"viability, T/C","second compound 3.16 µM, first compound 10 µM",54.8%
same,"viability, T/C","second compound 10 µM, first compound 0.0316 µM",71.5%
same,"viability, T/C","second compound 10 µM, first compound 0.1 µM",85.4%
same,"viability, T/C","second compound 10 µM, first compound 0.316 µM",73.8%
same,"viability, T/C","second compound 10 µM, first compound 1 µM",66.2%
same,"viability, T/C","second compound 10 µM, first compound 3.16 µM",70.7%
same,"viability, T/C","second compound 10 µM, first compound 10 µM",42.9%
same,"viability, T/C","second compound 31.6 µM, first compound 0.0316 µM",60%
same,"viability, T/C","second compound 31.6 µM, first compound 0.1 µM",67.3%
same,"viability, T/C","second compound 31.6 µM, first compound 0.316 µM",71.8%
same,"viability, T/C","second compound 31.6 µM, first compound 1 µM",47.2%
same,"viability, T/C","second compound 31.6 µM, first compound 3.16 µM",77.4%
same,"viability, T/C","second compound 31.6 µM, first compound 10 µM",45.2%
same,"viability, T/C","second compound 100 µM, first compound 0.0316 µM",55%
same,"viability, T/C","second compound 100 µM, first compound 0.1 µM",55.7%
same,"viability, T/C","second compound 100 µM, first compound 0.316 µM",48.1%
same,"viability, T/C","second compound 100 µM, first compound 1 µM",64.4%
same,"viability, T/C","second compound 100 µM, first compound 3.16 µM",54.7%
same,"viability, T/C","second compound 100 µM, first compound 10 µM",48.4%
